Assay results: US8835458B2 (Hanmi Science Co., Ltd, priority 2010, dated 2014)
Where a name gives a salt, the structure may show the parent alone. Read-outs that look alike come from different tables or passages of the source.

What was measured:
[1] = Toxicity to normal cells (SRB); type: cell-based, mouse; conditions: mouse, Balb/c3t3 fibroblasts (normal cell line), read-out: BalB/C (GI50)
Method: MDA-MB-231 breast cancer cell lines (ATCC #HTB-26) and BxPC-3 pancreas cancer cell lines (ATCC #CRL 1687), which have been reported to express XIAP, were obtained from ATCC (American type culture collection; Rockville, Md.). MDA-MB-231 cell lines were incubated in L-15 medium supplemented with 10% FBS and 1% penicillin/streptomycin (Gibco BRL) at a T-75 cm^2 growth flask. In addition, BxPC-3 cell lines were incubated in RPMI medium supplemented with 10% FBS and 1% penicillin/streptomycin. For experiments of toxicity to normal cells, fibroblasts Hs27 (ATCC #CRL 1634) and Balb/c3t3 (ATCC #CCL 163) were used. The various cell lines were transferred into 96-well plates at a density of 3,000˜5,000 cells/100 μL, and cultured for 24 hours under conditions of 37° C., 5% CO2, 95% air, and 100% relative humidity (MDA-MB-231 cells were cultured under atmospheric conditions). The cells were treated with 10 μM˜0.1 nM of test compounds, and MDA-MB-231, BxPC-3, and normal cell lines were cultured for 120, 96, and 72 hours, respectively.
Cell viabilities of MDA-MB-231 cell lines were measured at an absorbance of 490 nm using CellTiter 96™ AQueous One Solution Cell proliferation Assay (MTS, Promega), and cell viabilities of BxPC-3 and normal cell lines were measured by fixing cells with 10% TCA (trichloroacetic acid), staining with SRB (sulforhodamine B), and measuring at 540 nm. From the values, GI50 values in which test compounds reduce the growth of cancer cells by 50% were calculated. The growth rates of cancer cells were calculated from following Equation 1 or 2. [(Ti−Tz)/(C−Tz)]×100 (for Ti>=Tz) [Equation 1] [(Ti−Tz)/Tz]×100 (for Ti<Tz) [Equation 2] In Equations 1 and 2, Tz refers to a density of untreated cells, which is an absorbance in 0% cell growth groups. C refers to a density of cells cultured by adding only medium, and Ti refers to a density of cells treated with test compounds.
GI50 value is the concentration of a test compound when the value of Equation 1 is 50, which indicates the concentration of test compound required to inhibit the cancer cells by 50%. On each measurement, test compounds were compared with a control.
The activity value of each compound (GI50 value) was shown in Table 5, and an IAP antagonist was used as a control.
In the activity measurement on MDA-MB-231 breast cancer cell lines, the values were represented as “***” for 100 nM or less, “**” for over 100 nM to below 1,000 nM, and “*” for 1,000 nM or more. In the measurement on normal cell lines, Balb/C and Hs27, the values were represented as “+++” for 10,000 nM or more, “++” for over 5,000 nM to below 10,000 nM, and “+” for 5,000 nM or less.

[2] = Toxicity to normal cells (SRB); type: cell-based, human; conditions: human, Hs27 fibroblasts (normal cell line)
Method in brief: (§1)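 Cells seeded at 3,000˜5,000 cells/100 μL, grown 24 h at 37° C (MDA-MB-231 under atmospheric conditions), then exposed to 10 μM˜0.1 nM compound. MDA-MB-231 cultured 120 h, read by MTS at 490 nm; fibroblasts cultured 72 h, TCA-fixed, SRB-stained, read at 540 nm. GI50 from growth relative to untreated and medium-only cells.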

[3] = test system: MDA-MB-231 breast cancer cell lines; experiment: Evaluation of inhibition on cell growth (MTS); type: cell-based; conditions: Homo sapiens, MDA-MB-231, 120 hours
Method in brief: as §1

With `CN[C@@H](C)C(=O)N[C@H](C(=O)N1CCC[C@H]1C(=O)Nc1cc2c(Nc3ccc(N4CCCC4)cc3)ncnc2cc1OC)C(C)(C)C` [Example 65, (S)-1-((S)-3,3-dimethyl-2-((S)-2-(methylamino)propanamido)butanoyl)-N-(7-methoxy-4-(4-(pyrrolidin-1-yl)phenylamino)quinazolin-6-yl)pyrrolidine-2-carboxamide dihydrochloride] the GI50 at 72 h [1] was over 10 µM, the GI50 at 72 h [2] was over 10 µM and the GI50 [3] was at most 0.1 µM.

With `CN[C@@H](C)C(=O)N[C@H](C(=O)N1CCC[C@H]1C(=O)Nc1cc2c(N3CCCCC3)ncnc2cc1OC)C(C)(C)C` [Example 24, (S)-1-((S)-3,3-dimethyl-2-((S)-2-(methylamino)propanamido)butanoyl)-N-(7-methoxy-4-(piperidin-1-yl)quinazolin-6-yl)pyrrolidine-2-carboxamide hydrochloride] the GI50 at 72 h [1] was over 10 µM, the GI50 at 72 h [2] was over 10 µM and the GI50 [3] was at most 0.1 µM.

Molecule `CN[C@@H](C)C(=O)N[C@H](C(=O)N1CCC[C@H]1C(=O)Nc1cc2c(Nc3ccccc3Br)ncnc2cc1OC)C(C)(C)C` [Example 22, (S)—N-(4-(2-bromophenylamino)-7-methoxyquinazolin-6-yl)-1-((S)-3,3-dimethyl-2-((S)-2-(methylamino)propanamido)butanoyl)pyrrolidine-2-carboxamide hydrochloride] has a GI50 at 72 h [1] of over 10 µM, a GI50 at 72 h [2] of over 10 µM and a GI50 [3] of at most 0.1 µM.

Work on `CN[C@@H](C)C(=O)N[C@H](C(=O)N1CCC[C@H]1C(=O)Nc1cc2c(Nc3c(F)cccc3F)ncnc2cc1OC)C(C)(C)C` [Example 59, (S)—N-(4-(2,6-difluorophenylamino)-7-methoxyquinazolin-6-yl)-1-((S)-3,3-dimethyl-2-((S)-2-(methylamino)propanamido)butanoyl)pyrrolidine-2-carboxamide] yielded a GI50 at 72 h [1] of over 10 µM, a GI50 at 72 h [2] of over 10 µM and a GI50 [3] of at most 0.1 µM.

Molecule `CN[C@@H](C)C(=O)N[C@H](C(=O)N1CCC[C@H]1C(=O)Nc1cc2c(Nc3ccc(F)cc3F)ncnc2cc1OC)C(C)(C)C` [Example 28, (S)—N-(4-(2,4-difluorophenylamino)-7-methoxyquinazolin-6-yl)-1-((S)-3,3-dimethyl-2-((S)-2-(methylamino)propanamido)butanoyl)pyrrolidine-2-carboxamide hydrochloride] has a GI50 at 72 h [1] of over 10 µM, a GI50 at 72 h [2] of over 10 µM and a GI50 [3] of at most 0.1 µM.

Work on `CN[C@@H](C)C(=O)N[C@H](C(=O)N1CCC[C@H]1C(=O)Nc1cc2c(Nc3ccc4ccccc4c3)ncnc2cc1OC)C(C)(C)C` [Example 32, (S)-1-((S)-3,3-dimethyl-2-((S)-2-(methylamino)propanamido)butanoyl)-N-(7-methoxy-4-(naphthalen-2-ylamino)quinazolin-6-yl)pyrrolidine-2-carboxamide] yielded a GI50 at 72 h [1] of over 10 µM, a GI50 at 72 h [2] of over 10 µM and a GI50 [3] of at most 0.1 µM.

For `CN[C@@H](C)C(=O)N[C@H](C(=O)N1CCC[C@H]1C(=O)Nc1cc2c(N[C@@H](C)c3ccccc3)ncnc2cc1OC)C(C)(C)C` [Example 34, (S)-1-((S)-3,3-dimethyl-2-((S)-2-(methylamino)propanamido)butanoyl)-N-(7-methoxy-4-((S)-1-phenylmethylamino)quinazolin-6-yl)pyrrolidine-2-carboxamide hydrochloride], the GI50 at 72 h [1] was over 10 µM, the GI50 at 72 h [2] was over 10 µM and the GI50 [3] was at most 0.1 µM.

For `CN[C@@H](C)C(=O)N[C@H](C(=O)N1CCC[C@H]1C(=O)Nc1cc2c(NC3CCCCC3)ncnc2cc1OC)C(C)(C)C` [Example 38, (S)—N-(4-(cyclohexylamino)-7-methoxyquinazolin-6-yl)-1-((S)-3,3-dimethyl-2-((S)-2-(methylamino)propanamido)butanoyl)pyrrolidine-2-carboxamide hydrochloride], the GI50 at 72 h [1] was over 10 µM, the GI50 at 72 h [2] was over 10 µM and the GI50 [3] was at most 0.1 µM.

In the case of `C=CC(=O)N[C@@H](C)C(=O)N[C@H](C(=O)N1CCC[C@H]1C(=O)Nc1cc2c(Nc3ccc(F)c(Cl)c3F)ncnc2cc1OC)C(C)(C)C` [Example 13, (S)-1-((S)-2-((S)-2-acrylamidopropanamido)-3,3-dimethylbutanoyl)-N-(4-(3-chloro-2,4-difluorophenylamino)-7-methoxyquinazolin-6-yl)pyrrolidine-2-carboxamide hydrochloride], the GI50 at 72 h [1] is reported as over 10 µM, the GI50 at 72 h [2] is reported as over 10 µM and the GI50 [3] is reported as at least 1 µM.

`CN[C@@H](C)C(=O)N[C@H](C(=O)N1CCC[C@H]1C(=O)Nc1cc2c(Nc3ccccc3N3CCOCC3)ncnc2cc1OC)C(C)(C)C` [Example 47, (S)-1-((S)-3,3-dimethyl-2-((S)-2-(methylamino)propanamido)butanoyl)-N-(7-methoxy-4-(2-morpholinophenylamino)quinazolin-6-yl)pyrrolidine-2-carboxamide] showed a GI50 at 72 h [1] of over 10 µM, a GI50 at 72 h [2] of over 10 µM and a GI50 [3] of at most 0.1 µM.

`CCN(CC)c1ccc(Nc2ncnc3cc(OC)c(NC(=O)[C@@H]4CCCN4C(=O)[C@@H](NC(=O)[C@H](C)NC)C(C)(C)C)cc23)cc1` [Example 68, (S)-1-((S)-3,3-dimethyl-2-((S)-2-(methylamino)propanamido)butanoyl)-N-(7-methoxy-4-(4-diethylamino)phenylamino)quinazolin-6-yl)pyrrolidine-2-carboxamide dihydrochloride] gave a GI50 at 72 h [1] of over 10 µM, a GI50 at 72 h [2] of over 10 µM and a GI50 [3] of at most 0.1 µM.

Work on `CN[C@@H](C)C(=O)N[C@H](C(=O)N1CCC[C@H]1C(=O)Nc1cc2c(Nc3ccc(NC(=O)c4ccccc4)cc3)ncnc2cc1OC)C(C)(C)C` [Example 76, (S)—N-(4-(4-benzamidophenylamino)-7-methoxyquinazolin-6-yl)-1-((S)-3,3-dimethyl-2-((S)-2-(methylamino)propanamido)butanoyl)pyrrolidine-2-carboxamide] yielded a GI50 at 72 h [1] of over 10 µM, a GI50 at 72 h [2] of over 10 µM and a GI50 [3] of at most 0.1 µM.

With `CN[C@@H](C)C(=O)N[C@H](C(=O)N1CCC[C@H]1C(=O)Nc1cc2c(Nc3ccccc3Cl)ncnc2cc1OC)C(C)(C)C` [Example 21, (S)—N-(4-(2-chlorophenylamino)-7-methoxyquinazolin-6-yl)-1-((S)-3,3-dimethyl-2-((S)-2-(methylamino)propanamido)butanoyl)pyrrolidine-2-carboxamide hydrochloride] the GI50 at 72 h [1] was over 10 µM, the GI50 at 72 h [2] was over 10 µM and the GI50 [3] was at most 0.1 µM.

Work on `CN[C@@H](C)C(=O)N[C@H](C(=O)N1CCCC[C@H]1C(=O)Nc1cc2c(Nc3ccc(F)c(Cl)c3F)ncnc2cc1OC)C(C)(C)C` [Example 25] yielded a GI50 at 72 h [1] of over 10 µM, a GI50 at 72 h [2] of over 10 µM and a GI50 [3] of 0.1 to 1 µM.

For `CCN1CCN(c2ccc(Nc3ncnc4cc(OC)c(NC(=O)[C@@H]5CCCN5C(=O)[C@@H](NC(=O)[C@H](C)NC)C(C)(C)C)cc34)cc2)CC1` [Example 60, (S)-1-((S)-3,3-dimethyl-2-((S)-2-(methylamino)propanamido)butanoyl)-N-(4-(4-(4-ethylpiperazin-1-yl)phenylamino)-7-methoxyquinazolin-6-yl)pyrrolidine-2-carboxamide], the GI50 at 72 h [1] was over 10 µM, the GI50 at 72 h [2] was over 10 µM and the GI50 [3] was 0.1 to 1 µM.

`CN[C@@H](C)C(=O)N[C@H](C(=O)N1CCC[C@H]1C(=O)Nc1cc2c(Nc3cc(NC(C)=O)ccc3Cl)ncnc2cc1OC)C(C)(C)C` [Example 75, (S)—N-(4-(5-acetamino-2-chlorophenylamino)-7-methoxyquinazolin-6-yl)-1-((S)-3,3-dimethyl-2-((S)-2-(methylamino)propanamido)butanoyl)pyrrolidine-2-carboxamide] showed a GI50 at 72 h [1] of over 10 µM, a GI50 at 72 h [2] of over 10 µM and a GI50 [3] of at most 0.1 µM.
